Assay results reported in paper PMC5051147, “Ester Hydrolysis Differentially Reduces Aconitine-Induced Anti-hypersensitivity and Acute Neurotoxicity: Involvement of Spinal Microglial Dynorphin Expression and Implications for Aconitum Processing” (Frontiers in Pharmacology, 2016).
Entries after “also recorded” stand apart in the source; their conditions may differ.

Experiments:
[1] = system: dynorphin A expression in spinal microglia; details: 2016, cited from earlier work; for Effect on dynorphin A level / expression: spinal cord and cultured primary spinal microglia
[2] = system: mechanical allodynia in spinal L5/L6 nerve–ligated neuropathic rats; assay: Mechanical allodynia (von Frey paw withdrawal threshold) after intrathecal injection in spinal nerve-ligated neuropathic rats; assay type: in vivo, rat; details: for Blockade of aconitine (100 ng) anti-allodynia / Blockade of benzolyaconine (10 μg) anti-allodynia: intrathecal pretreatment: antiserum 1:10 or nor-BNI 100 μg 0.5 h earlier, minocycline 100 μg 4 h earlier; for Own effect on withdrawal responses in contralateral or ipsilateral paws: compared with saline control
Protocol: (§1) An 18-cm polyethylene catheter (PE-10: 0.28-mm inner diameter and 0.61-mm outer diameter, Clay Adams, Parsippany, NJ, USA) with a volume of 13 μL was inserted into the lumbar level of the spinal cord as described elsewhere under inhalational isoflurane anesthesia (4% for induction and 1% for maintenance) run by an anesthesia meter (Ugo Basile Gas Anesthesia System, Comerio, Italy). Two days after recovery from anesthesia, the placement of the catheter in the spinal cord was verified by administration of 4% lidocaine (10 μL, followed by 15 μL of saline for flushing). Rats that had no motor impairment after placement of the intrathecal catheter were considered for the study, and rats that developed immediate bilateral paralysis of the hindlimbs after intrathecal administration of lidocaine were selected for the study. For intrathecal administration of the control and test articles, 10 μL of each drug was injected with a 50-μL microinjector (Shanghai Anting Micro-Injector Factory, Shanghai, China) and was flushed with 15 μL of normal saline solution.
(§2) To induce hypersensitivity to neuropathic pain, the rats were subjected to spinal nerve ligation as previously described [Kim and Chung (1992)] and [Zhang et al. (2013)]. Unilateral ligation of the L5 and L6 spinal nerves was performed under inhalational isoflurane anesthesia (4% for induction and 1% for maintenance) run by an anesthesia meter (Ugo Basile Gas Anesthesia System). The left L5 and L6 spinal nerves were isolated and tightly ligated with 6-0 silk thread. After ligation, the wound was sutured and the rats were returned to their home cages for recovery. After spinal nerve ligation, only those rats with marked unilateral allodynia to mechanical stimulation (i.e., a hindpaw withdrawal threshold of less than 8 g on the operated side) and with no major impairment were included in the study. Drug testing started 2–4 weeks after spinal nerve ligation.
To evaluate mechanical allodynia, the animals were acclimatized for at least 30 min to the test environment, namely, a plexiglass box on a metal grid (0.5 cm × 0.5 cm). The hindpaw withdrawal threshold was measured with a 2450 CE Electronic von Frey hair (IITC Life Science Inc, Woodland Hill, CA, USA). An electronic handheld transducer with a No. 15 monofilament was applied perpendicularly to the medial surface of the hindpaws with increasing force (ranging from 0.1 to 90 g) until the rat suddenly withdrew or licked the hindpaw. The lowest force that produced a withdrawal response was considered to be the threshold, which was the mean of three repeated measurements made in a 5-min interval.
(§3) The percentage of maximal possible effect (% MPE) was calculated using the following formula: (postdrug threshold in ipsilateral hindlimb – baseline threshold in ipsilateral hindlimb)/(baseline threshold in contralateral hindlimb – baseline threshold in ipsilateral hindlimb) × 100 ([Bowersox et al., 1996]). A % MPE value near 100 indicates normal mechanical thresholds (i.e., near contralateral thresholds), and a value near 0 indicates allodynia. For the dose-response curve analysis, the parameters (i.e., minimum effect; Emax, median effective concentration or dose, or median toxic or lethal dose [EC50, ED50, TD50, or LD50], and Hill coefficient [n]) were calculated from the individual dose-response curves using the Prism program (version 5.01, GraphPad Software, San Diego, CA, USA). To determine the parameters of the dose-response curves, the values of response (Y) were fitted by non-linear least-squares curves to the relation Y = a + bx, where x = [D]^n/(ED50^n + [D]^n), [C]^n/(EC50^n + [C]^n), [D]^n/(TD50^n + [D]^n) or [D]^n/(LD50^n + [D]^n), to give each value of ED50, EC50, TD50, or LD50 and b (Emax) yielding a minimum residual sum of squares of deviations from the theoretical curve ([Wang and Pang, 1993]).

neuropathic rats = system: neuropathic rats; set-up: method as in Li et al., 2016; details: ref Li et al., 2016; cited from earlier work
[3] = system: heat hyperalgesia in spinal L5/L6 nerve–ligated neuropathic rats; assay: Heat hyperalgesia (radiant heat paw withdrawal latency) after intrathecal injection in spinal nerve-ligated neuropathic rats; assay type: in vivo, rat
Protocol: as §1, §2
To assess heat hyperalgesia, the rats were put in a plexiglass box on an elevated glass surface. After an adaptation period of at least 30 min, radiant heat was applied to the plantar medial surface of each hindpaw. The hindpaw withdrawal latency was measured with a Model 390G Plantar Test Analgesia Meter (IITC Life Science Inc.). To prevent tissue damage, the latency cutoff was set at 30 s. The paw withdrawal latency was defined as the time from the onset of radiant heat application to the withdrawal of the hindpaw. Both hindpaws were tested independently three times with a 5-min interval between trials. The result for each test was calculated as the mean of the three repeated measurements.
as §3, with “To determine the parameters of the dose-response curves, the values of response (Y) were fitted by non-linear least-squares curves to the relation Y = a + bx, where x = [D]^n/(ED50^n + [D]^n), [C]^n/(EC50^n + [C]^n), [D]^n/(TD50^n + [D]^n) or [D]^n/(LD50^n + [D]^n), to give each value of ED50, EC50, TD50, or LD50 and b (Emax) yielding a minimum residual sum of squares of deviations from the theoretical curve ([Wang and Pang, 1993]).” left out

[4] = system: pain hypersensitivity in spinal nerve-ligated neuropathic rats; assay: Anti-hypersensitivity, normalized (anti-allodynia and anti-hyperalgesia ED50 averaged); assay type: in vivo, rat
Protocol: as §3
Table 1 summarizes the ED50 values in mole base for aconitine, benzolyaconine, and aconine to block pain hypersensitivity. Because anti-allodynia and anti-hyperalgesia were closely correlated, their ED50 values were averaged to obtain a normalized ED50 for anti-hypersensitivity. The ED50 ratios for aconitine and benzolyaconine to block mechanical allodynia and heat hyperalgesia were 1:92 and 1:110, with a normalized ED50 ratio of 1:102.

[5] = system: prodynorphin gene expression in primary cultures of spinal microglia; assay: Prodynorphin gene expression in cultured primary spinal microglia (real-time quantitative PCR); assay type: cell-based, rat
Protocol: Glial cells were isolated from the 1-day-old neonatal rats. The isolated spinal cords were minced and then incubated with trypsin. Dissociated cells were suspended in 75-cm^2 tissue culture flasks (1 × 10^7 cells/flask) precoated with poly-L-lysine and maintained in a 5% CO2 incubator at 37°C. After culture for 10 days, the microglial cells were prepared as floating cell suspensions by shaking the flask at 260 rpm for 2 h. The aliquots were transferred to plates, and the unattached cells were removed by washing with serum-free Dulbecco’s modified Eagle’s medium.
RNA extraction, reverse transcription, and real-time quantitative PCR were performed as previously described ([Chen et al., 2012]). The spinal lumbar enlargements of rats were collected and mechanically homogenized with an electronic microhomogenizer at 4,000 rpm for 10 s in TRIzol on ice. Total RNA from the spinal lumbar enlargements were isolated using TRIzol reagent (Invitrogen, Grand Island, NY, USA). A 1-μg sample of total RNA was reverse-transcribed with a ReverTra Ace qPCR RT-Kit (Toyobo, Japan). Real-time quantitative PCR was carried out with the Mastercycler ep realplex (Eppendorf, Germany) using the RealmasterMix (SYBR Green I) (Toyobo). The fold change was calculated with the 2^-ΔΔCt method after normalization to the gene of gapdh. […]
The percentage of maximal possible effect (% MPE) was calculated using the following formula: (postdrug threshold in ipsilateral hindlimb – baseline threshold in ipsilateral hindlimb)/(baseline threshold in contralateral hindlimb – baseline threshold in ipsilateral hindlimb) × 100 ([Bowersox et al., 1996]). […] For the dose-response curve analysis, the parameters (i.e., minimum effect; Emax, median effective concentration or dose, or median toxic or lethal dose [EC50, ED50, TD50, or LD50], and Hill coefficient [n]) were calculated from the individual dose-response curves using the Prism program (version 5.01, GraphPad Software, San Diego, CA, USA). […]
Primary cultures of microglial cells taken from the spinal cords of the neonatal rats were treated with a variety of concentrations of aconitine (1 × 10^-8, 3 × 10^-8, 1 × 10^-7, 3 × 10^-7, and 1 × 10^-6 M), benzolyaconine (3 × 10^-7, 1 × 10^-6, 3 × 10^-6, 1 × 10^-5, 3 × 10^-5, and 1 × 10^-4 M) and aconine (1 × 10^-4, 3 × 10^-4, 1 × 10^-3, 3 × 10^-3, and 1 × 10^-2 M) for 2 h. As the bulleyaconitine A-increased dynorphin A level measured by the enzyme-linked immunosorbent assay was in parallel with the prodynorphin gene expression in spinal microglia from neonatal and adult rats ([Li et al., 2016]), the expression of the cellular prodynorphin gene encoding dynorphin A was only measured in this study using real-time quantitative PCR. […]

[6] = system: spinal nerve–ligated neuropathic rats; assay: Acute spinal neurotoxicity (flaccid paralysis and death) after intrathecal injection; assay type: in vivo, rat; details: for LD50 (mortality) / TD50 (for flaccid paralysis): intrathecal bolus, observed 24 h; for Normalized TD50: average of TD50 (paralysis) and LD50
Protocol: as §1
Survival and abnormal motor-blockade behaviors, including asthma, abdominal breathing, locomotion difficulty, and paralysis, were continuously monitored for 24 h after the treatment, with special attention given during the first 4 h. Paralysis was defined as an inability to negotiate a 60-degree inclined plane ([Durant and Yaksh, 1986]). Death was defined as respiratory arrest over a period of 5 min. The paralysis and mortality rates and their latencies were quantitatively recorded and tabulated.
as §3

mice = details: intravenous injection in mice; ref Mizugaki and Ito, 2005; cited from earlier work
[7] = system: mechanical allodynia in spinal L5/L6 nerve–ligated neuropathic rats; set-up: method as in Li et al., 2016; details: ref Li et al., 2016; cited from earlier work
[8] = system: heat hyperalgesia in spinal L5/L6 nerve–ligated neuropathic rats; set-up: method as in Li et al., 2016; details: ref Li et al., 2016; cited from earlier work

For CCN(CC)CC(=O)Nc1c(C)cccc1C [lidocaine], the “Effect on dynorphin A level / expression” value ([1]; ref Li et al.) is listed as “did not stimulate dynorphin A expression”.

For C=C1C2CCC3(C4C[C@H]5C6(CCC[C@@]5(C)CN(CC)C46)[C@H]3[C@H]2O)[C@@H]1O [Bullatine A], the “Effect on dynorphin A expression” value ([1]; microglia in the spinal cord and cultured primary microglia, ref Huang et al.) is listed as “specifically stimulated dynorphin A expression”.

In the case of CN(C)c1ccc(O)c2c1C[C@H]1C[C@H]3[C@H](N(C)C)C(O)=C(C(N)=O)C(=O)[C@@]3(O)C(O)=C1C2=O [minocycline, reference compound], the “Blockade of aconitine (100 ng) anti-allodynia” value [2] is reported as “completely prevented”, the “Blockade of benzolyaconine (10 μg) anti-allodynia” value [2] is reported as “completely alleviated benzolyaconine anti-allodynia” and the “Own effect on withdrawal responses in contralateral or ipsilateral paws” value ([2]; intrathecal) is reported as “did not affect withdrawal thresholds”. For the same molecule, the “Effect on antinociceptive effects of bulleyaconitine A” value (neuropathic rats) was “completely abolished the antinociceptive effects of bulleyaconitine A”.

For Oc1ccc2c3c1O[C@H]1c4[nH]c5c(c4C[C@@]4(O)[C@@H](C2)N(CC2CC2)CC[C@]314)C[C@@]1(O)[C@H]2Cc3ccc(O)c4c3[C@@]1(CCN2CC1CC1)[C@H]5O4 [nor-BNI, Nor-binaltorphimine, reference compound], the “Blockade of aconitine (100 ng) anti-allodynia” value [2] was “completely blocked aconitine-induced anti-allodynia”, the “Blockade of benzolyaconine (10 μg) anti-allodynia” value [2] was “completely alleviated benzolyaconine anti-allodynia” and the “Own effect on withdrawal responses in contralateral or ipsilateral paws” value ([2]; intrathecal) was “did not affect the withdrawal responses”.

With CCN1CC2(COC)C(O)CC(OC)C34C5CC6(O)C(OC)C(O)C(O)(C5C6OC(=O)c5ccccc5)C(C(OC)C23)C14 (stereo not drawn) [Benzolyaconine, benzoylaconine] the “Anti-allodynic effect in ipsilateral paws” value ([2]; intrathecal 10 μg) was “marked and reversible anti-allodynia”, the “Emax, blockade of mechanical allodynia” value ([2]; intrathecal, 1 h after injection) was 56.4 % MPE and the “ED50, anti-allodynia” value ([2]; intrathecal, % MPE at 1 h after injection) was 3.6 nmol. For the same molecule, the “Effect on withdrawal responses in the contralateral paws” value ([2]; intrathecal, mechanical and thermal stimuli) was “did not significantly affect the paw withdrawal responses in the contralateral paws”, the “Emax, blockade of thermal hyperalgesia” value ([3]; 1 h after injection) was 100 % MPE and the “ED50, anti-hyperalgesia” value ([3]; % MPE at 1 h after injection) was 3.5 nmol. For the same molecule, the “Normalized ED50 for anti-hypersensitivity” value ([4]; intrathecal, average of allodynia and hyperalgesia ED50) was 3.6 nmol, the “Normalized ED50 relative to that of aconitine” value ([4]; times greater than aconitine) was 102 times and the EC50 ([5]; Rattus norvegicus, primary spinal microglia of neonatal rats, 2 h incubation, read-out: EC50, stimulation of prodynorphin gene (dynorphin A) expression) was 3000 nM. The “Duration of toxic motor-blockade behavior” value ([6]; intrathecal) was 5 to 10 min, the “Latency of toxic motor-blockade behavior” value ([6]; intrathecal) was 2 to 3 min and the “LD50 (mortality)” value [6] was 0.2 µmol. For the same molecule, the “TD50 (for flaccid paralysis)” value [6] was 0.2 µmol, the “Normalized TD50” value ([6]; intrathecal) was 0.2 µmol and the LD50 (mice) was 23 mg/kg.

For CCCCN1CCCCC1C(=O)Nc1c(C)cccc1C (stereo not drawn) [bupivacaine], the “Effect on dynorphin A level / expression” value ([1]; ref Li et al.) is listed as “did not stimulate dynorphin A expression”.

For CCN1C[C@]2(COC)[C@H](O)C[C@H](OC)[C@]34C1[C@H]([C@H](OC)[C@H]23)[C@]1(O)[C@H]2[C@@H](O)[C@](O)(C[C@H]24)[C@@H](OC)[C@@H]1O [Aconine, aconine], the “Effect on mechanical allodynia in ipsilateral paws” value ([2]; intrathecal, up to 300 μg) was “did not produce significant anti-allodynia or anti-hyperalgesia; also recorded: did not alter mechanical allodynia or thermal hyperalgesia”, the “Effect on heat hyperalgesia in ipsilateral paws” value ([3]; up to 300 μg) was “did not produce significant anti-allodynia or anti-hyperalgesia; also recorded: did not alter mechanical allodynia or thermal hyperalgesia” and the “Effect on prodynorphin gene (dynorphin A) expression” value ([5]; up to 10 mM, 2 h) was “did not significantly affect prodynorphin gene expression; also recorded: did not significantly stimulate the dynorphin A expression”. For the same molecule, the “LD50 (mortality)” value [6] was 1.7 µmol, the “TD50 (for flaccid paralysis)” value [6] was 1.5 µmol and the “Normalized TD50” value ([6]; intrathecal) was 1.6 µmol. For the same molecule, the LD50 (mice) was 120 mg/kg.

For bulleyaconitine A, the “ED50, block of mechanical allodynia” value [7] is given as 180 pmol, the “ED50, block of heat hyperalgesia” value [8] is given as 201 pmol and the EC50 ([1]; ref Li et al., read-out: EC50, stimulation of microglial dynorphin A expression) is given as 45 nM. For the same molecule, the “Effect on dynorphin A level / expression” value ([1]; ref Li et al.) was “significantly increased the dynorphin A level”.
